Read-outs that look alike come from different tables or passages of the source.
Columns and labels:
[1] = tested on: BT-16 cells; format: cell-based; conditions: BT-16, read-out: MTT: IC50 of the proliferation assay
[2] = tested on: BT-16 cells; test: PrestoBlue Cell Viability assay; format: cell-based; conditions: BT-16, read-out: PB: IC50 of the PrestoBlue Viability assay
Experimental: (§1) Cell viability was assessed using the Presto Blue™ Cell Viability reagent (Thermo Fisher Scientific, Carlsbad, CA, USA) following the manufacturer’s instructions. Cells were plated in 96-well plates at the same densities described above for the proliferation assay. The fluorescence was measured after 24, 48, 72, and 96 h at concentrations ranging from 0.001 to 10 µM of the inhibitor. All assays were performed in triplicate.

[3] = tested on: D283 cells; test: PrestoBlue Cell Viability assay; format: cell-based; conditions: D283, read-out: PB: IC50 of the PrestoBlue Viability assay
Experimental: as §1

[4] = tested on: MON cells; test: PrestoBlue Cell Viability assay; format: cell-based; conditions: read-out: PB: IC50 of the PrestoBlue Viability assay
Experimental: as §1

[5] = molecular target: CDC7/DBF4 (Homo sapiens, UniProt O00311); test: SelectScreen kinase profiling, LanthaScreen binding; conditions: CDC7/DBF4, 10 µM
[6] = molecular target: CHEK1 (CHK1) (Homo sapiens, UniProt O14757); test: SelectScreen kinase profiling, ZLYTE; format: biochemical
[7] = molecular target: CSNK2A1 (CK2 alpha 1) (Homo sapiens, UniProt P68400); test: SelectScreen kinase profiling, ZLYTE; format: biochemical
[8] = molecular target: EPHB3 (Homo sapiens, UniProt P54753); test: SelectScreen kinase profiling, ZLYTE; format: biochemical; conditions: EPHB3, 10 µM
[9] = molecular target: P450 2B6 (Homo sapiens, UniProt P20813)
[10] = molecular target: FGFR3 G697C (Homo sapiens, UniProt P22607, G697C); test: SelectScreen kinase profiling, LanthaScreen binding
[11] = molecular target: FGFR3 K650E (Homo sapiens, UniProt P22607, K650E); test: SelectScreen kinase profiling, ZLYTE; format: biochemical
[12] = molecular target: FGR (Homo sapiens, UniProt P09769); test: SelectScreen kinase profiling, ZLYTE; format: biochemical
[13] = molecular target: FYN A (Homo sapiens, UniProt P06241); test: SelectScreen kinase profiling, LanthaScreen binding
Chain of FYN A (P06241 whole entry): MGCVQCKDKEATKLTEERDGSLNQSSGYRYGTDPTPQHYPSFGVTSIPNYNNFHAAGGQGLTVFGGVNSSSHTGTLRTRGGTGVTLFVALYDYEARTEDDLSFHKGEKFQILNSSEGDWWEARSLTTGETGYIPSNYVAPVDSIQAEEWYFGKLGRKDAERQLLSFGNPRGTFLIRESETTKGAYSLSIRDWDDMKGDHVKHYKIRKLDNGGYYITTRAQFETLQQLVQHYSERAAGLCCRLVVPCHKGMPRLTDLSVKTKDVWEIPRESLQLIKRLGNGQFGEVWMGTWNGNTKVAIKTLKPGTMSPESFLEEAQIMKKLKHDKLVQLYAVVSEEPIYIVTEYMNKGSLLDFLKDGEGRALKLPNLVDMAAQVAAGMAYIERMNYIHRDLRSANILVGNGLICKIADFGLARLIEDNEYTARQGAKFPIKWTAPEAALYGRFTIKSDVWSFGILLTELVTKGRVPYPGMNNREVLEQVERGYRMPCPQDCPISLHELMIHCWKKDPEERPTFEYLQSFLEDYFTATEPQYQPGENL

[14] = molecular target: LRRK2 R1441C (Homo sapiens, UniProt Q5S007, R1441C); test: SelectScreen kinase profiling, Adapta; format: biochemical
[15] = molecular target: MAP3K2 (MEKK2) (Homo sapiens, UniProt Q9Y2U5); test: SelectScreen kinase profiling, LanthaScreen binding
[16] = molecular target: PDGFRA D842V (Homo sapiens, UniProt P16234, D842V); test: SelectScreen kinase profiling, ZLYTE; format: biochemical
Chain of PDGFRA D842V (P16234 24-1089 D842V): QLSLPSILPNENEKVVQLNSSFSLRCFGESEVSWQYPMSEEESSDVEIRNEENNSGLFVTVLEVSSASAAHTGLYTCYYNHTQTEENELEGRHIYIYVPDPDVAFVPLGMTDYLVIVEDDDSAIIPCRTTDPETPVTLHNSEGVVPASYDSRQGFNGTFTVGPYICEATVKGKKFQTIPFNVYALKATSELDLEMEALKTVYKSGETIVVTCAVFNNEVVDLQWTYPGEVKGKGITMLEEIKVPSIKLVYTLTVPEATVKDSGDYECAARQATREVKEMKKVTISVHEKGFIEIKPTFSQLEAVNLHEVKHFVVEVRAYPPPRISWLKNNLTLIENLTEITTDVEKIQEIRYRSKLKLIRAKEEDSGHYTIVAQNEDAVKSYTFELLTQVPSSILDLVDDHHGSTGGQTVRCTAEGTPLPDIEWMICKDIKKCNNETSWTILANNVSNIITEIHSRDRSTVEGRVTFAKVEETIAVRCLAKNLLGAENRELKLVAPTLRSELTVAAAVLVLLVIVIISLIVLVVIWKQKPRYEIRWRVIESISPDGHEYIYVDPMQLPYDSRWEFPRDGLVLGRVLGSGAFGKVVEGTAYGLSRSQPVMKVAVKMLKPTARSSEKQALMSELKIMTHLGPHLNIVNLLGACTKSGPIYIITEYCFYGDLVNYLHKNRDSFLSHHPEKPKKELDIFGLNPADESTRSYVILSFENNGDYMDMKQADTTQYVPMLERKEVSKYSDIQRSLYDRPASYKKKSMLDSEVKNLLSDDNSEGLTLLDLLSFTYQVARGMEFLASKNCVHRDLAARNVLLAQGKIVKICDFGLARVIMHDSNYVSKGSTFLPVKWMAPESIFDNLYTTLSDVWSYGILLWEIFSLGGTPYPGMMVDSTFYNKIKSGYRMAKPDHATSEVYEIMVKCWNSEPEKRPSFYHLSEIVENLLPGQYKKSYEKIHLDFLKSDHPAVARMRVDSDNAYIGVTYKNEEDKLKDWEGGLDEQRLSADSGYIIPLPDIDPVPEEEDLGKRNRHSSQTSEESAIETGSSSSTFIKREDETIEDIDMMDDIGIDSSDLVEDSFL

[17] = molecular target: PRKX (Homo sapiens, UniProt P51817); test: SelectScreen kinase profiling, ZLYTE; format: biochemical
[18] = molecular target: RET A883F (Homo sapiens, UniProt P07949, A883F); test: SelectScreen kinase profiling, ZLYTE; format: biochemical
Chain of RET A883F (P07949 29-1114 A883F): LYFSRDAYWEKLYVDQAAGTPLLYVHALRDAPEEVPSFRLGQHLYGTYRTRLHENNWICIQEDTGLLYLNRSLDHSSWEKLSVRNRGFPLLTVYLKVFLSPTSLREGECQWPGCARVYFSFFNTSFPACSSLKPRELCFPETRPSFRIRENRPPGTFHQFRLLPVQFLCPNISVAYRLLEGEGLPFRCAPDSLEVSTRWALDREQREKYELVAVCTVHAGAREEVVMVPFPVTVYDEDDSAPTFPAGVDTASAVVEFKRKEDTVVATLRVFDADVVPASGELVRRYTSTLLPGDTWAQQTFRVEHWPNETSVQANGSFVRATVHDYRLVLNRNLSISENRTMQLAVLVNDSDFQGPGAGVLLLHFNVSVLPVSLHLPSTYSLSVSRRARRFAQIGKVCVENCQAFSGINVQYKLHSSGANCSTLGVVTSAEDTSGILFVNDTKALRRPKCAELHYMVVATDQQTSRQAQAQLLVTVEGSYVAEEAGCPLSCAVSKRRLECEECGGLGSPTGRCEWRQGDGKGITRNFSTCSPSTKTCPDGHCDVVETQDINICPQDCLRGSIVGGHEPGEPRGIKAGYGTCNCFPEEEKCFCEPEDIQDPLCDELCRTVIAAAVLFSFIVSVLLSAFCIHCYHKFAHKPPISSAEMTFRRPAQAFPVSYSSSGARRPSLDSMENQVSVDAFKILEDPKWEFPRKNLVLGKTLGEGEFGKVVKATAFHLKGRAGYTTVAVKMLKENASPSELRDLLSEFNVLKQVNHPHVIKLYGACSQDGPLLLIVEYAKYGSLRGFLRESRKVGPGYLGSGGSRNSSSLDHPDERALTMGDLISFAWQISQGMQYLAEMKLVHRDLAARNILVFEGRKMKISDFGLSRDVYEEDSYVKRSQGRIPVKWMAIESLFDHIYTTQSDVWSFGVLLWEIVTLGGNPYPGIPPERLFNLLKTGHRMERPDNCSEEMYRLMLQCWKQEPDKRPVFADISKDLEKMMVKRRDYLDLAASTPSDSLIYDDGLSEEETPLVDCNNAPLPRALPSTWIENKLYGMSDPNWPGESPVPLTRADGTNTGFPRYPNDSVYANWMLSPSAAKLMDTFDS

[19] = molecular target: RET V804M (Homo sapiens, UniProt P07949, V804M); test: SelectScreen kinase profiling, LanthaScreen binding
Chain of RET V804M (P07949 29-1114 V804M): as the sequence (P07949 29-1114 A883F) above, with V776M, F855A counted along it

[20] = molecular target: STK24 (MST3) (Homo sapiens, UniProt Q9Y6E0); test: SelectScreen kinase profiling, ZLYTE; format: biochemical
Source text: (§2) Kinase Technology % Inhibition Avg Kinase Technology % Inhibition Avg […]

[21] = molecular target: STK25 (YSK1) (Homo sapiens, UniProt O00506); test: SelectScreen kinase profiling, ZLYTE; format: biochemical
Chain of STK25 (YSK1) (O00506 whole entry): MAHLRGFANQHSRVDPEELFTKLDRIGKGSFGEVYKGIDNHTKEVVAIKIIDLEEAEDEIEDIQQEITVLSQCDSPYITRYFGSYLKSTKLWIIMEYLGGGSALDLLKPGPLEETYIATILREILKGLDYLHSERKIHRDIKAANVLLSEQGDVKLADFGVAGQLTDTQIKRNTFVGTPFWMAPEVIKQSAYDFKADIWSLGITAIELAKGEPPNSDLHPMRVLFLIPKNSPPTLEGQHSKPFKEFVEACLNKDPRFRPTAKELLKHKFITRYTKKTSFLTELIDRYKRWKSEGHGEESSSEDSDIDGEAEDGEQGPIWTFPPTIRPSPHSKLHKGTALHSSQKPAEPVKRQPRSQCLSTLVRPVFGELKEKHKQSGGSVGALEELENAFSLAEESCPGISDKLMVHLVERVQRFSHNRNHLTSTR
Source text: as §2

[22] = molecular target: STK3 (MST2) (Homo sapiens, UniProt Q13188); test: SelectScreen kinase profiling, ZLYTE; format: biochemical
Chain of STK3 (MST2) (Q13188 whole entry): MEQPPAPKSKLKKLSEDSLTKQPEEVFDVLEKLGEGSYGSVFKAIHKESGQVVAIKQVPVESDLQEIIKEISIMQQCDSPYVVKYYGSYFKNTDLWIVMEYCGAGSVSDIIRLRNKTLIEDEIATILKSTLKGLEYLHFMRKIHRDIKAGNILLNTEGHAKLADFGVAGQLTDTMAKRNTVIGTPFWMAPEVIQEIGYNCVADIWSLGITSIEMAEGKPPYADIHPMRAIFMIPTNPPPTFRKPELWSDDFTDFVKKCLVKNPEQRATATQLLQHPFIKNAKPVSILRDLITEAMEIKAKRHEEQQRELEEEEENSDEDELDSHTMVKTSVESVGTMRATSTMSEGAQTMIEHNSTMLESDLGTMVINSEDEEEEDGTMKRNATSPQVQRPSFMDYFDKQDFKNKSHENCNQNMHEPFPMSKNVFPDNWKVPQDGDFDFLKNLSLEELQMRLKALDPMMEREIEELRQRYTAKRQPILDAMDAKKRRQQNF
Source text: as §2

[23] = molecular target: STK4 (MST1) (Homo sapiens, UniProt Q13043); test: SelectScreen kinase profiling, ZLYTE; format: biochemical
Source text: as §2

[24] = molecular target: SYK (Homo sapiens, UniProt P43405); test: SelectScreen kinase profiling, ZLYTE; format: biochemical
Source text: as §2

[25] = molecular target: TAOK2 (TAO1) (Homo sapiens, UniProt Q9UL54); test: SelectScreen kinase profiling, ZLYTE; format: biochemical
Source text: as §2

[26] = molecular target: TBK1 (Homo sapiens, UniProt Q9UHD2); test: SelectScreen kinase profiling, ZLYTE; format: biochemical; conditions: TBK1, 10 µM
Source text: as §2

[27] = molecular target: TEK (TIE2) Y897S (Homo sapiens, UniProt Q02763, Y897S); test: SelectScreen kinase profiling, ZLYTE; format: biochemical
Source text: as §2

[28] = molecular target: TEK (Tie2) (Homo sapiens, UniProt Q02763); test: SelectScreen kinase profiling, ZLYTE; format: biochemical
Source text: as §2

[29] = molecular target: TNK1 (Homo sapiens, UniProt Q13470); test: SelectScreen kinase profiling, ZLYTE; format: biochemical; conditions: TNK1, 10 µM
Chain of TNK1 (Q13470 whole entry): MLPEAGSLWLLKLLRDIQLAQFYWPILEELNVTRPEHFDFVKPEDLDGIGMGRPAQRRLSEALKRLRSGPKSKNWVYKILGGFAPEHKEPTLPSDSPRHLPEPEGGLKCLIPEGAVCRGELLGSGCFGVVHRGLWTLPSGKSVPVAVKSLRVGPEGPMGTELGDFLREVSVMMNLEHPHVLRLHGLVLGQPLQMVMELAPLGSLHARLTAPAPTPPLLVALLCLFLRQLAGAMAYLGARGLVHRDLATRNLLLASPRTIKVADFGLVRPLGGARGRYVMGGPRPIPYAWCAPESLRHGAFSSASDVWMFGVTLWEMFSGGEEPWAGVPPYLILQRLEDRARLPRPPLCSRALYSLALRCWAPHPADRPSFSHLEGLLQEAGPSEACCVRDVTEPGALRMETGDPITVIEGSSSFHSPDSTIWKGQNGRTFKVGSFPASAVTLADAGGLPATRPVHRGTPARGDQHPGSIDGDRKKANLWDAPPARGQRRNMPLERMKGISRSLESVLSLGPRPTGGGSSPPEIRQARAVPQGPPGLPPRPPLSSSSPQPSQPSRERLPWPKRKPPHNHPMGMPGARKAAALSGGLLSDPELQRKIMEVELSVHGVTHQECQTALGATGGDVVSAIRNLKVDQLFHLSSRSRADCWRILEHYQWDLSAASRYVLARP
Source text: as §2

[30] = molecular target: TXK (Homo sapiens, UniProt P42681); test: SelectScreen kinase profiling, ZLYTE; format: biochemical
Source text: as §2

[31] = molecular target: TYK2 (Homo sapiens, UniProt P29597); test: SelectScreen kinase profiling, ZLYTE; format: biochemical; conditions: TYK2, 10 µM
Source text: as §2

[32] = molecular target: TYRO3 (RSE) (Homo sapiens, UniProt Q06418); test: SelectScreen kinase profiling, ZLYTE; format: biochemical
Source text: as §2

[33] = molecular target: CYP2D6 (Homo sapiens, UniProt P10635); test: SelectScreen P450 Vivid biochemical assay; conditions: 10000nM; substrate EOMCC
Chain of CYP2D6 (P10635 whole entry): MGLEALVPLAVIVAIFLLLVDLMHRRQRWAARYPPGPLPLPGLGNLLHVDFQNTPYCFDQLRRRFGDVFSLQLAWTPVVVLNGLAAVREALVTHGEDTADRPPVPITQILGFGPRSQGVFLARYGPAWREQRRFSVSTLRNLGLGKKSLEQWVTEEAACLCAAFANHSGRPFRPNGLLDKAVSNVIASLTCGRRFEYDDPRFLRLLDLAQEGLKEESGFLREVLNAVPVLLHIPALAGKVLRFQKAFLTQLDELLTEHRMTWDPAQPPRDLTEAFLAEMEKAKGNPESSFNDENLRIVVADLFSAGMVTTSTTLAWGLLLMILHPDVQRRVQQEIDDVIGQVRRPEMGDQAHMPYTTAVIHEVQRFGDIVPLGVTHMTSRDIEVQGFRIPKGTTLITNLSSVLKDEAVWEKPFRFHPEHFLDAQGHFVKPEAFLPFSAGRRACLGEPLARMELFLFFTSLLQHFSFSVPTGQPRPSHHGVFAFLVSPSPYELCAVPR

## O=C(c1ccc(/C=C/c2n[nH]c3ccccc23)cc1)N1CCNCC1 [KW-2449]
[1]
  IC50: > 10 µM
[2]
  IC50: 1.84 µM
[3]
  IC50: > 10 µM
[4]
  IC50: 1.74 µM
[5]
  inhibition at 10 µM: 16%
[6]
  inhibition at 10 µM: 99%
[7]
  inhibition at 10 µM: 18%
[8]
  inhibition at 10 µM: 21%
[9]
  IC50: 9.8 µM
[10]
  inhibition at 10 µM: 78%
[11]
  inhibition at 10 µM: 97%
[12]
  inhibition at 10 µM: 99%
[13]
  inhibition at 10 µM: 72%
[14]
  inhibition at 10 µM: 100%
[15]
  inhibition at 10 µM: 86%
[16]
  inhibition at 10 µM: 98%
[17]
  inhibition at 10 µM: 96%
[18]
  inhibition at 10 µM: 99%
[19]
  inhibition at 10 µM: -5%
[20]
  inhibition at 10 µM: 85%
[21]
  inhibition at 10 µM: 45%
[22]
  inhibition at 10 µM: 77%
[23]
  inhibition at 10 µM: 93%
[24]
  inhibition at 10 µM: 98%
[25]
  inhibition at 10 µM: 87%
[26]
  inhibition at 10 µM: 99%
[27]
  inhibition at 10 µM: 80%
[28]
  inhibition at 10 µM: 99%
[29]
  inhibition at 10 µM: 94%
[30]
  inhibition at 10 µM: 94%
[31]
  inhibition at 10 µM: 99%
[32]
  inhibition at 10 µM: 92%
[33]
  % Inhibition 2D6 EOMCC: 1%

Source: PMC6540285, “Evaluation of Protein Kinase Inhibitors with PLK4 Cross-Over Potential in a Pre-Clinical Model of Cancer” (International Journal of Molecular Sciences, 2019)
